Experimental findings from the NIST ThermoML archive (doi:10.1021/acs.jced.6b00112) are described below.

± gives the expanded uncertainty stated by the source.

For data set [1] the following is noted: 298.15 K; 101.33 kPa; Liquid; Vibrating tube method.
The nature of data set [2]: refractive index (Na D-line) (dimensionless). The following applies: 298.15 K; 101.33 kPa; Liquid; Standard Abbe refractometry.

As for `CC(=O)O` [acetic acid], in data set [1], the mass density is recorded as 1044.12 ± 10 kg/m3. In data set [2], the refractive index is 1.3714 ± 0.0008.

As to `CCCC(=O)O` [butanoic acid], in data set [1], the mass density came to 952.68 ± 10 kg/m3. For the same compound, the refractive index in data set [2] was determined as 1.3977 ± 0.0008.

In the case of `CCc1ccccc1` [ethylbenzene], in data set [1], the mass density came out at 862.51 ± 10 kg/m3. In addition, the refractive index in data set [2] was 1.493 ± 0.0008.

Regarding `O=CO` [formic acid], the mass density in data set [1] came out at 1219.5 ± 10 kg/m3. Moreover, the refractive index in data set [2] is recorded as 1.371 ± 0.0008.

As to `CCC(=O)O` [propanoic acid], the mass density in data set [1] was determined as 998.04 ± 10 kg/m3. Moreover, the refractive index in data set [2] is 1.3807 ± 0.0008.

Turning to `O` [water], the refractive index in data set [2] is given as 1.3324 ± 0.0008.

As usually defined, the mass density is the mass of a sample divided by its volume. One may read the refractive index as the speed of light in vacuum divided by its phase velocity in the sample.
